Experimental data taken from ChEMBL document CHEMBL3885861, “Open TG-GATES”.

Species: Rattus norvegicus
Test: Open TG-GATES - Regimen: Daily Repeat
Type: toxicity, organism-based, Sprague-Dawley
Set-up: regimen Daily Repeat, gender Male, age 6 weeks
Conditions: in vivo, po, 0 mg/kg, route gavage, dose level Control; for APTT / Bas / Eos / Fbg / Hb / Ht / Lym / MCH / MCHC / MCV / Mono / Neu / PT / Plat / RBC / Ret / WBC: tissue Blood; for KIDNEY_L / KIDNEY_R / KIDNEY_TOTAL: tissue Kidney; for LIVER: tissue Liver; for A/G / ALP / ALT / AST / BUN / CRE / Ca / Cl / DBIL / GLC / IP / K / LDH / Na / PL / RALB / TBIL / TC / TG / TP / gamma-GTP: tissue Plasma

CC(=O)[C@@]1(O)CC[C@H]2[C@@H]3C=C(Cl)C4=CC(=O)CC[C@]4(C)[C@H]3CC[C@@]21C [CHLORMADINONE]
TERMINAL_BW (72 h, time 3 day): 240.6 g
APTT (72 h, time 3 day): 23.6 s
Bas (72 h, time 3 day): 0%
Eos (72 h, time 3 day): 1%
Fbg (72 h, time 3 day): 295 mg/dL
Hb (72 h, time 3 day): 13.3 g/dL
Ht (72 h, time 3 day): 40.9%
Lym (72 h, time 3 day): 77.6%
MCH (72 h, time 3 day): 20.3 pg
MCHC (72 h, time 3 day): 32.6%
MCV (72 h, time 3 day): 62.4 fL
Mono (72 h, time 3 day): 2.6%
Neu (72 h, time 3 day): 18.4%
PT (72 h, time 3 day): 15.6 s
Plat (72 h, time 3 day): 116.7 x10_4/uL
RBC (72 h, time 3 day): 656 x10_4/ul
Ret (72 h, time 3 day): 6.4%
WBC (72 h, time 3 day): 122.2 x10_2/uL
KIDNEY_L (72 h, time 3 day): 1 g
KIDNEY_R (72 h, time 3 day): 1 g
KIDNEY_TOTAL (72 h, time 3 day): 2 g
LIVER (72 h, time 3 day): 10.8 g
A/G (72 h, time 3 day): 1.2
ALP (72 h, time 3 day): 1828 IU/L
ALT (72 h, time 3 day): 43.8 IU/L
AST (72 h, time 3 day): 82 IU/L
BUN (72 h, time 3 day): 18.8 mg/dL
CRE (72 h, time 3 day): 0.2 mg/dL
Ca (72 h, time 3 day): 10.8 mg/dL
Cl (72 h, time 3 day): 105.8 meq/L
DBIL (72 h, time 3 day): 0 mg/dL
GLC (72 h, time 3 day): 190.6 mg/dL
IP (72 h, time 3 day): 7 mg/dL
K (72 h, time 3 day): 4.3 meq/L
LDH (72 h, time 3 day): 300.6 IU/L
Na (72 h, time 3 day): 141.6 meq/L
PL (72 h, time 3 day): 151.2 mg/dL
RALB (72 h, time 3 day): 3 g/dL
TBIL (72 h, time 3 day): 0.008 mg/dL
TC (72 h, time 3 day): 72.2 mg/dL
TG (72 h, time 3 day): 114.8 mg/dL
TP (72 h, time 3 day): 5.4 g/dL
gamma-GTP (72 h, time 3 day): 1.4 IU/L
TERMINAL_BW ([…], time 7 day): 267.1 g
TERMINAL_BW ([…], time 14 day): 325.5 g
TERMINAL_BW ([…], time 28 day): 410.9 g
APTT ([…], time 7 day): 24.1 s
Bas ([…], time 7 day): 0%
Eos ([…], time 7 day): 0.8%
Fbg ([…], time 7 day): 337 mg/dL
Hb ([…], time 7 day): 13.8 g/dL
Ht ([…], time 7 day): 41.5%
Lym ([…], time 7 day): 80.8%
MCH ([…], time 7 day): 20.3 pg
MCHC ([…], time 7 day): 33.1%
MCV ([…], time 7 day): 61.1 fL
Mono ([…], time 7 day): 2.2%
Neu ([…], time 7 day): 15.2%
PT ([…], time 7 day): 15.6 s
Plat ([…], time 7 day): 112.3 x10_4/uL
RBC ([…], time 7 day): 680 x10_4/ul
Ret ([…], time 7 day): 5.6%
WBC ([…], time 7 day): 129.9 x10_2/uL
APTT ([…], time 14 day): 23.6 s
Bas ([…], time 14 day): 0%
Eos ([…], time 14 day): 0.8%
Fbg ([…], time 14 day): 320.6 mg/dL
Hb ([…], time 14 day): 14 g/dL
Ht ([…], time 14 day): 41.9%
Lym ([…], time 14 day): 80.8%
MCH ([…], time 14 day): 19.9 pg
MCHC ([…], time 14 day): 33.5%
MCV ([…], time 14 day): 59.5 fL
Mono ([…], time 14 day): 2.2%
Neu ([…], time 14 day): 15.2%
PT ([…], time 14 day): 15.4 s
Plat ([…], time 14 day): 100.4 x10_4/uL
RBC ([…], time 14 day): 704 x10_4/ul
Ret ([…], time 14 day): 5.2%
WBC ([…], time 14 day): 126.8 x10_2/uL
APTT ([…], time 28 day): 24.8 s
Bas ([…], time 28 day): 0%
Eos ([…], time 28 day): 0.8%
Fbg ([…], time 28 day): 325 mg/dL
Hb ([…], time 28 day): 15.2 g/dL
Ht ([…], time 28 day): 44%
Lym ([…], time 28 day): 82.2%
MCH ([…], time 28 day): 19.5 pg
MCHC ([…], time 28 day): 34.4%
MCV ([…], time 28 day): 56.5 fL
Mono ([…], time 28 day): 2%
Neu ([…], time 28 day): 14.2%
PT ([…], time 28 day): 15.5 s
Plat ([…], time 28 day): 100.5 x10_4/uL
RBC ([…], time 28 day): 779 x10_4/ul
Ret ([…], time 28 day): 3%
WBC ([…], time 28 day): 118.3 x10_2/uL
KIDNEY_L ([…], time 7 day): 1.1 g
KIDNEY_R ([…], time 7 day): 1.1 g
KIDNEY_TOTAL ([…], time 7 day): 2.2 g
KIDNEY_L ([…], time 14 day): 1.2 g
KIDNEY_R ([…], time 14 day): 1.2 g
KIDNEY_TOTAL ([…], time 14 day): 2.5 g
KIDNEY_L ([…], time 28 day): 1.4 g
KIDNEY_R ([…], time 28 day): 1.4 g
KIDNEY_TOTAL ([…], time 28 day): 2.9 g
LIVER ([…], time 7 day): 12.3 g
LIVER ([…], time 14 day): 14.3 g
LIVER ([…], time 28 day): 17.2 g
A/G ([…], time 7 day): 1.2
ALP ([…], time 7 day): 1354.8 IU/L
ALT ([…], time 7 day): 39.4 IU/L
AST ([…], time 7 day): 67.8 IU/L
BUN ([…], time 7 day): 18.8 mg/dL
CRE ([…], time 7 day): 0.2 mg/dL
Ca ([…], time 7 day): 10.8 mg/dL
Cl ([…], time 7 day): 105.8 meq/L
DBIL ([…], time 7 day): 0 mg/dL
GLC ([…], time 7 day): 200.8 mg/dL
IP ([…], time 7 day): 7 mg/dL
K ([…], time 7 day): 4.2 meq/L
LDH ([…], time 7 day): 158.4 IU/L
Na ([…], time 7 day): 140.6 meq/L
PL ([…], time 7 day): 147.2 mg/dL
RALB ([…], time 7 day): 3.1 g/dL
TBIL ([…], time 7 day): 0.01 mg/dL
TC ([…], time 7 day): 76 mg/dL
TG ([…], time 7 day): 114.8 mg/dL
TP ([…], time 7 day): 5.7 g/dL
gamma-GTP ([…], time 7 day): 2.2 IU/L
A/G ([…], time 14 day): 1.1
ALP ([…], time 14 day): 1391 IU/L
ALT ([…], time 14 day): 37.4 IU/L
AST ([…], time 14 day): 64.6 IU/L
BUN ([…], time 14 day): 17.6 mg/dL
CRE ([…], time 14 day): 0.2 mg/dL
Ca ([…], time 14 day): 10.6 mg/dL
Cl ([…], time 14 day): 107 meq/L
DBIL ([…], time 14 day): 0 mg/dL
GLC ([…], time 14 day): 188 mg/dL
IP ([…], time 14 day): 6.6 mg/dL
K ([…], time 14 day): 4 meq/L
LDH ([…], time 14 day): 156.6 IU/L
Na ([…], time 14 day): 142.2 meq/L
PL ([…], time 14 day): 137.4 mg/dL
RALB ([…], time 14 day): 3 g/dL
TBIL ([…], time 14 day): 0.016 mg/dL
TC ([…], time 14 day): 69.6 mg/dL
TG ([…], time 14 day): 112.2 mg/dL
TP ([…], time 14 day): 5.7 g/dL
gamma-GTP ([…], time 14 day): 2.2 IU/L
A/G ([…], time 28 day): 1
ALP ([…], time 28 day): 988 IU/L
ALT ([…], time 28 day): 44.4 IU/L
AST ([…], time 28 day): 73.4 IU/L
BUN ([…], time 28 day): 21.6 mg/dL
CRE ([…], time 28 day): 0.2 mg/dL
Ca ([…], time 28 day): 10.6 mg/dL
Cl ([…], time 28 day): 103.8 meq/L
DBIL ([…], time 28 day): 0 mg/dL
GLC ([…], time 28 day): 201.4 mg/dL
IP ([…], time 28 day): 6.6 mg/dL
K ([…], time 28 day): 4.4 meq/L
LDH ([…], time 28 day): 217.4 IU/L
Na ([…], time 28 day): 141.2 meq/L
PL ([…], time 28 day): 131 mg/dL
RALB ([…], time 28 day): 3.1 g/dL
TBIL ([…], time 28 day): 0.01 mg/dL
TC ([…], time 28 day): 63.2 mg/dL
TG ([…], time 28 day): 112.4 mg/dL
TP ([…], time 28 day): 6.3 g/dL
gamma-GTP ([…], time 28 day): 2.2 IU/L
